Here are results for two molecules from ChEMBL document CHEMBL1129778, “Design and synthesis of bisubstrate analogues for 3-hydroxy-3-methyl-glutaryl coenzyme a reductase” (Bioorg Med Chem Lett, 1996).

Active and inactive are the calls of the source. The calls are words filed in the database; no cut-off is given here.

The target in this assay is T1, 3-hydroxy-3-methylglutaryl-coenzyme A reductase (Rattus norvegicus) (UniProt P51639).
T1 sequence (whole entry): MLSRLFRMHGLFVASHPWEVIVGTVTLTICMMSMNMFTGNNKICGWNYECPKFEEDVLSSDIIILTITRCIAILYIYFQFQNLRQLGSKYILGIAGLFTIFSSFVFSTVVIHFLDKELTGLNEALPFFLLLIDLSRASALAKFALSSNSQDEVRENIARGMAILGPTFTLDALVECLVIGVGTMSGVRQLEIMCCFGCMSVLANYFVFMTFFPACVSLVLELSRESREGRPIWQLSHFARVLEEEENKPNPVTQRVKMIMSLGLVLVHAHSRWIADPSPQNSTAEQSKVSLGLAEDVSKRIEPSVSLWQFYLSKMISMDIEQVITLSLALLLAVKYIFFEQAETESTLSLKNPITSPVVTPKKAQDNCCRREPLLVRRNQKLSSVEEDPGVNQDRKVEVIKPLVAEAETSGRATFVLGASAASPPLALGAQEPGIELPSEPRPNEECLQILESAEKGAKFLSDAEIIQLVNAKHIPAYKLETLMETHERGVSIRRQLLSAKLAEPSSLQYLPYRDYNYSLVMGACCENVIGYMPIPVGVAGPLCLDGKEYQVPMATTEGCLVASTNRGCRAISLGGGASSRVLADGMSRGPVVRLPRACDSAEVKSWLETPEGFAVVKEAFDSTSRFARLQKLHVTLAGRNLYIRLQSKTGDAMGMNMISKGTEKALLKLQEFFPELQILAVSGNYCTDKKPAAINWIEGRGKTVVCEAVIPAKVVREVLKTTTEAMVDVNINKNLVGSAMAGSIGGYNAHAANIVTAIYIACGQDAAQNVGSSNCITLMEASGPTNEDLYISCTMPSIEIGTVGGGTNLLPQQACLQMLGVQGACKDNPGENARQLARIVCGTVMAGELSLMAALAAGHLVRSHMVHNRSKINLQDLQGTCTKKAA
The assay is described as follows: Biological activity against rat liver 3-hydroxy-3-methyl glutaryl coenzyme A reductase (HMGR) at a concentration of 10E-4 M; No inhibition. The class given is tissue-based.

Turning to `COC(=O)C[C@H](O)C[C@H](O)Cc1ccncc1C(N)=O`, the outcome was inactive.
As for `COC(=O)C[C@H](O)C[C@@H](O)Cc1ccncc1C(N)=O`, the outcome was inactive.
